# pIC50: −log10 of the molar value.
# Experiments:
# [1] = target: T1, Bromodomain-containing protein 4 (Homo sapiens, UniProt O60885); test: Binding affinity to BRD4 (unknown origin) expressed in Escherichia coli BL21 (DE3) assessed as thermal stabilization at 10 uM by SYPRO orange dye based DSF assay
# [2] = target: T1, Bromodomain-containing protein 4; test: Inhibition of BRD4 (unknown origin) expressed in Escherichia coli BL21 (DE3) using [Lys(Ac)5/8/12/16]-histone H4 (1 to 21residues)-GGK as substrate incubated for 30 mins by TR-FRET assay
SMILES,ΔTm [1],pIC50 [2]
Oc1ccc(Cl)cc1Nc1ncnc2nc[nH]c12,2.4 °C,3.31
CCCc1nnc(NC(=O)c2c(C)noc2C)s1,0.9 °C,–
Cc1nc(C#N)c(NCc2csnn2)o1,3.4 °C,–
COc1ccc(CNC(=O)CSc2nnc(N)s2)cc1,0.9 °C,–
Cc1noc(N)c1-c1ccccc1,4.55 °C,4.04
Cc1nonc1-c1cc2ccccc2[nH]1,2.6 °C,–
Cc1cc(SCc2c(C)noc2C)ncn1,1.8 °C,4.52
Cc1noc(C)c1CSc1nnc(C)n1N,–,3.72
CCc1nnc2scc(-c3ccccc3)n12,3.3 °C,–
Nc1noc2c1c(=O)[nH]c1ccccc12,3.1 °C,–
Cc1cc(Cl)ccc1O[C@H](C)c1nnc(N)s1,0.8 °C,4.10
Cc1noc(C)c1C(=O)Nc1nnc(C2CC2)s1,–,4.07
Cc1nnc2n1C[C@@H](NC(=O)Cn1cnnn1)CC2,2.9 °C,–
Cc1n[nH]c2nnc(N)c-2c1C,0.9 °C,–
Oc1ccccc1-n1c(O)nnc1S,–,3.19
COc1cccc(Cc2nnc(N)s2)c1,1.6 °C,–

# Source: ChEMBL document CHEMBL5214919, “Discovery of Novel BRD4 Ligand Scaffolds by Automated Navigation of the Fragment Chemical Space” (J Med Chem, 2021)
